Test results as given in patent publication EP1724268A1, “COMPOUND HAVING TGF-BETA INHIBITORY ACTIVITY AND PHARMACEUTICAL COMPOSITION CONTAINING SAME” (KIRIN BEER KABUSHIKI KAISHA, priority 2004, dated 2005).

Tested on: TGFβ signal
Experiment: TGFβ signal inhibitory activity, (SBE)4-Luc reporter in A549 cells (Test Examples 1A and 1B)
Assay type: cell-based, human
Settings: Homo sapiens, A549, TGFβ-1 2 ng/ml, 4 hr, Table 1A, read-out: TGFβ inhibition rate, %; for inhibition at 3 µM: test compound 3 µM; for inhibition at 10 µM: test compound 10 µM
Procedure: Test Example 1A: TGFβ signal inhibitory activity (in vitro test) The compounds according to the present invention was evaluated for TGFβ signal inhibitory activity according to the method described in J. Boil .Chem., 273, 21145-21152 (1998). Specifically, a plasmid having four tandem binding sequences of Smad3, a TGF-beta signal transducer, to the upstream of a luciferases gene were used as a reporter plasmid ((SBE)4-Luc) to detect TGF-beta signal, This reporter gene was introduced into human pulmonary carcinoma epithelial cells (A549) (available from ATCC) to establish a stable cell line. A test compound and TGFβ-1 (2 ng/ ml) were added to the cells, and the mixture was cultured for 4 hr. In this case, the compounds according to the present invention synthesized in the Examples were used as the test compound. After the culture, the luciferase activity of the cells were measured by chemiluminescence (Steady Glo (trademark) luciferase assay system, available from Promega). Likewise, the luciferase activity was measured as a control against the culture of cells with the addition of TGFβ only and the culture of cells without the addition of both TGFβ and the test compound.
The TGFβ inhibition (%) was calculated by the following equation, based on the measurement results. TGFβ inhibition(%) = (A-B)/(A-C) × 100 [formula] wherein • A: luciferase activity with the addition of TGFβ1 and without the addition of test compound (relative luciferase unit), • B: luciferase activity with the addition of both TGFβ1 and test compound (relative luciferase unit), and • C: luciferase activity without the addition of both TGFβ1 and test compound (relative luciferase unit).
The test was carried out for each of test compound at the concentrations of 3 µM and 10 µM. For certain test compounds, the test was further carried out for test compound at the concentration of 1 µM.
For the compounds of Reference Examples, the TGFβ signal inhibitory activity was evaluated in the same manner as in Test Example 1A.

With `Cc1csc2ncnc(Oc3cc4cccnc4nc3-c3ccccc3)c12` [Compound 77, 3-(5-Methyl-thieno[2,3-d]pyrimidin-4-yloxy)-2-phenyl-[1,8]naphthyridine] the inhibition at 3 µM was 93% and the inhibition at 10 µM was 99%.
Work on `Cc1sc2ncnc(Oc3cc4cccnc4nc3-c3ccccc3)c2c1C` [Compound 78, 3-(5,6-Dimethyl-thieno[2,3-d]pyrimidin-4-yloxy)-2-phenyl-[1,8] naphthyridine] yielded an inhibition at 3 µM of 75% and an inhibition at 10 µM of 99%.
Molecule `COc1cccc(-c2nc3ncccc3cc2Oc2ccnc3cc(OC)c(OC)cc23)c1` [Compound 81, 3-(6,7-Dimethoxy-quinolin-4-yloxy)-2-(3-methoxy-phenyl)-[1,8] naphthyridine] has an inhibition at 3 µM of 97% and an inhibition at 10 µM of 100%.
`Brc1ccc(-c2nc3ncccc3cc2Oc2ccnc3ccccc23)cc1` [Compound 82, 2-(4-Bromo-phenyl)-3-(quinolin-4-yloxy)-[1,8]naphthyridine] was tested, and the inhibition at 3 µM was 25% and the inhibition at 10 µM was 67%.
Work on `COc1cc2nccc(Oc3cc4cccnc4nc3-c3ccc(F)cc3)c2cc1OC` [Compound 83, 3-(6,7-Dimethoxy-quinolin-4-yloxy)-2-(4-fluoro-phenyl)-[1,8]naphthyridine] yielded an inhibition at 3 µM of 92% and an inhibition at 10 µM of 99%.
`COc1cc2nccc(Oc3cc4cccnc4nc3-c3ccc(Cl)cc3)c2cc1OC` [Compound 84, 2-(4-Chloro-phenyl)-3-(6,7-dimethoxy-quinolin-4-yloxy)-[1,8]naphthyridine] showed an inhibition at 3 µM of 69% and an inhibition at 10 µM of 100%.
In the case of `COc1cc2nccc(Oc3cc4cccnc4nc3-c3ccc(Br)cc3)c2cc1OC` [Compound 85, 2-(4-Bromo-phenyl)-3'-(6,7-dimethoxy-quinolin-4-yloxy)-[1,8]naphthyridine], the inhibition at 3 µM is reported as 48% and the inhibition at 10 µM is reported as 97%.
`COc1cc2nccc(Oc3cc4cccnc4nc3-c3ccc(C#N)cc3)c2cc1OC` [Compound 86, 4-[3-(6,7-Dimethoxy-quinolin-4-yloxy)-[1,8]naphthyridin-2-yl]-benzonitrile] showed an inhibition at 3 µM of 26% and an inhibition at 10 µM of 74%.
`COc1cc2nccc(Oc3cc4cccnc4nc3-c3cccnc3)c2cc1OC` [Compound 88, 3-(6,7-Dimethoxy-quinolin-4-yloxy)-2-pyridin-3-yl-[1,8]naphthyridine] was tested, and the inhibition at 3 µM was 90% and the inhibition at 10 µM was 100%.
`COc1cc2nccc(Oc3cc4cccnc4nc3-c3ccncc3)c2cc1OC` [Compound 89, 3-(6,7-Dimethoxy-quinolin-4-yloxy)-2-pyridin-4-yl-[1,8]naphthyridine] was tested, and the inhibition at 3 µM was 36% and the inhibition at 10 µM was 77%.
Molecule `c1cnc2nc(-c3csc4ccccc34)c(Oc3ccnc4ccccc34)cc2c1` [Compound 90, 2-Benzo[b]thiophen-3-yl-3-(quinolin-4-yloxy)-[1,8]naphthyridine] has an inhibition at 3 µM of 22% and an inhibition at 10 µM of 68%.
In the case of `COc1cc2nccc(Oc3cc4cccnc4nc3-c3csc4ccccc34)c2cc1OC` [Compound 91, 2-Benzo[b]thiophen-3-yl-3-(6,7-dimethoxy-quinolin-4-yloxy)-[1,8]naphthyridine], the inhibition at 3 µM is reported as 97% and the inhibition at 10 µM is reported as 100%.
For `COc1cc2nccc(Oc3cc4ccccc4nc3-c3ncccn3)c2cc1OC` [Compound 92, 6,7-Dimethoxy-4-(2-pyrimidin-2-yl-quinolin-3-yloxy)-quinoline], the inhibition at 1 µM (test compound 1 µM) was 62% and the inhibition at 3 µM was 98%.
Molecule `COc1cc2nccc(Oc3cc4cnccc4nc3-c3ccccc3)c2cc1OC` [Compound 93, 3-(6,7-Dimethoxy-quinolin-4-yloxy)-2-phenyl-[1,6]naphthyridine] has an inhibition at 3 µM of 97% and an inhibition at 10 µM of 100%.
With `COc1cc2nccc(Oc3cc4cnccc4nc3-c3cccnc3)c2cc1OC` [Compound 95, 3-(6,7-Dimethoxy-quinolin-4-yloxy)-2-pyridin-3-yl-[1,6]naphthyridine] the inhibition at 3 µM was 40% and the inhibition at 10 µM was 85%.
`COc1cc2nccc(Oc3cc4ccncc4nc3C)c2cc1OC` [Compound 97, 3-(6,7-Dimethoxy-quinolin-4-yloxy)-2-methyl-[1,7]naphthyridine] was tested, and the inhibition at 3 µM was 52% and the inhibition at 10 µM was 88%.
`COc1cc2nccc(Oc3cc4ccncc4nc3-c3ccccc3)c2cc1OC` [Compound 98, 3-(6,7-Dimethoxy-quinolin-4-yloxy)-2-phenyl-[1,7]naphthyridine] showed an inhibition at 3 µM of 94% and an inhibition at 10 µM of 100%.
With `COc1cc2nccc(Oc3cc4c(nc3-c3ccccc3)NCCC4)c2cc1C(=O)NCc1ccccc1` [Compound 99, 7-Methoxy-4-(2-phenyl-5,6,7,8-tetrahydro-[1,8]naphthyridin-3-yloxy)-quinoline-6-carboxylate benzylamide] the inhibition at 3 µM was 76% and the inhibition at 10 µM was 92%.
Molecule `Fc1cc2nccc(Oc3cc4cccnc4nc3-c3ccccc3)c2cc1F` [Compound 101] has an inhibition at 3 µM of 54% and an inhibition at 10 µM of 98%.
In the case of `Fc1cc2nccc(Oc3cc4cccnc4nc3-c3ccccc3)c2c(F)c1F` [Compound 102, 2-Phenyl-3-(5,6,7-trifluoro-quinolin-4-yloxy)-[1,8]naphthyridine], the inhibition at 3 µM is reported as 45% and the inhibition at 10 µM is reported as 92%.
Work on `Cc1cc(Oc2ccnc3ccc(F)cc23)c(-c2ccccn2)nc1C` [Compound 103, 3-(6-Fluoro-quinolin-4-yloxy)-5,6-dimethyl-[2,2']bipyridine] yielded an inhibition at 3 µM of 99% and an inhibition at 10 µM of 100%.
Molecule `COc1cc2c(Oc3cc(C)c(C)nc3-c3ccccn3)ccnc2cc1F` [Compound 104, 3-(7-Fluoro-6-methoxy-quinolin-4-yloxy)-5,6-dimethyl-[2,2']bipyridine] has an inhibition at 3 µM of 99% and an inhibition at 10 µM of 100%.
`COc1cc2c(Oc3cc(C)c(C)nc3-c3ccccn3)ccnc2cc1Cl` [Compound 105, 3-(7-Chloro-6-methoxy-quinolin-4-yloxy)-5,6-dimethyl-[2,2']bipyridine] showed an inhibition at 3 µM of 100% and an inhibition at 10 µM of 100%.
Work on `Cc1cc(Oc2ccnc3cc(-c4cccc(O)c4)ccc23)c(-c2ccccn2)nc1C` [Compound 106, 3-[4-(5,6-Dimethyl-[2,2']bipyridinyl-3-yloxy)-quinolin-7-yl]-phenol] yielded an inhibition at 3 µM of 99% and an inhibition at 10 µM of 100%.
Work on `Cc1cc(Oc2ccnc3cc(-c4ccc(O)cc4)ccc23)c(-c2ccccn2)nc1C` [Compound 107, 4-[4-(5,6-Dimethyl-[2,2']bipyridinyl-3-yloxy)-quinolin-7-yl]-phenol] yielded an inhibition at 3 µM of 100% and an inhibition at 10 µM of 100%.
Molecule `Cc1cc(Oc2ccnc3cc(-c4ccccc4N)ccc23)c(-c2ccccn2)nc1C` [Compound 108, 2-[4-(5,6-Dimethyl-[2,2']bipyridinyl-3-yloxy)-quinolin-7-yl]-phenylamine] has an inhibition at 3 µM of 96% and an inhibition at 10 µM of 100%.
`COc1cc2nccc(Oc3cc(C)c(C)nc3-c3ccccn3)c2cc1F` [Compound 110, 3-(6-Fluoro-7-methoxy-quinolin-4-yloxy)-5,6-dimethyl-[2,2']bipyridine] was tested, and the inhibition at 3 µM was 100% and the inhibition at 10 µM was 100%.
In the case of `Cc1cc(Oc2ccnc3c(F)cc(F)cc23)c(-c2ccccn2)nc1C` [Compound 111, 3-(6,8-Difluoro-quinolin-4-yloxy)-5,6-dimethyl-[2,2']bipyridine], the inhibition at 3 µM is reported as 43% and the inhibition at 10 µM is reported as 84%.
`COC(=O)c1ccc2c(Oc3cc4cccnc4nc3-c3ccccc3)ccnc2c1` [Compound 113, Methyl 4-(2-Phenyl-[1,8]naphthyridin-3-yloxy)-quinoline-7-carboxarlate] showed an inhibition at 3 µM of 95% and an inhibition at 10 µM of 100%.
